Results as given in patent US6906093B2, “Indolinone combinatorial libraries and related products and methods for the treatment of disease” (Sugen, Inc., priority 1995, dated 2005).
Read-outs that look alike come from different tables or passages of the source.

Legend:
FLK-1 receptor = biological target: T1, FLK-1 receptor (Mus musculus, UniProt P35918); test: FLK-1 ELISA in FLK-1/NIH3T3 cells; type: cell-based
T1 construct: expressed in transfected cells; host or cells: NIH3T3 C7 #3

EGFR = biological target: T2, EGFR (Homo sapiens, UniProt P00533); test: EGF-Induced BrdU Incorporation Assay in 3T3/EGFR cells; type: cell-based; settings: EGF ligand; read-out: Mitogenesis in 3T3/EGFR Cells, BrdU Incorporation, EGFR EGF Ligand IC50
T2 construct: expressed in transfected cells; host or cells: NIH 3T3/C7 (3T3/EGFRc7)
Experimental: Assay 2: EGF-Induced BrdU Incorporation Assay
Protocol • (1) 3T3 engineered cell line: 3T3/EGFRc7 • (2) Cells are seeded at 8000 cells/well in 10% CS, 2 mM Gln in DMEM, in a 96 well plate. […] The negative control wells receive serum free DMEM with 0.1% BSA only; the positive control cells receive the ligand (EGF) but no test compound. […] FixDenat solution is added (50 μl/well) and the plates are incubated at room temperature for 45 minutes on a plate shaker. • (7) The FixDenat solution is thoroughly removed by decanting and tapping the inverted plate on a paper towel. Milk is added (5% dehydrated milk in PBS, 200 μl/well) as a blocking solution and the plate is incubated for 30 minutes at room temperature on a plate shaker. • (8) The blocking solution is removed by decanting and the wells are washed once with PBS. Anti-BrdU-POD solution (1:100 dilution in PBS, 1% BSA) is added (100 μl/well) and the plate is incubated for 90 minutes at room temperature on a plate shaker. • (9) The antibody conjugate is thoroughly removed by decanting and rinsing the wells 5 times with PBS, and the plate is dried by inverting and tapping on a paper towel. • (10) TMB substrate solution is added (100 μl/well) and incubated for 20 minutes at room temperature on a plate shaker until color development is sufficient for photometric detection. • (11) The absorbance of the samples are measured at 410 nm (in “dual wavelength” mode with a filter reading at 490 nm, as a reference wavelength) on a Dynatech ELISA plate reader.

HUV-EC-C cells [1] = test: HUV-EC-C assay, VEGF-induced [3H]thymidine incorporation; type: cell-based, human; settings: VEGF-stimulated HUV-EC cells, read-out: Mitogenesis in Endothelial Cells, [3H] Thymidine Incorporation, HUV-EC Assay, VEGF
Experimental: (§1) Repeat the wash two more times with D-PBS, resuspend the cells in about 1 ml assay medium/15 cm^2 of tissue culture flask.
(§2) Add cells to 96-well flat-bottom plates at 100 μl/well or 0.8-1.0×10^4 cells/well; incubate ˜24 h at 37° C., 5% CO2.
(§3) Use the same assay medium as mentioned in day 0, step 2 above. Titrations are made by adding 90 μl/well of drug at 200 μM (4× the final well concentration) to the top well of a particular plate column. Since the stock drug concentration-is usually 20 mM in DMSO, the 200 μM drug concentration contains 2% DMSO.
(§4) Therefore, diluent made up to 2% DMSO in assay medium (F12K+0.5% fetal bovine serum) is used as diluent for the drug titrations in order to dilute the drug but keep the DMSO concentration constant. Add this diluent to the remaining wells in the column at 60 μl/well. Take 60 μl from the 120 μl of 200 μM drug dilution in the top well of the column and mix with the 60 μl in the second well of the column. Take 60 μl from this well and mix with the 60 μl in the third well of the column, and so on until two-fold titrations-are completed. When the next-to-the-last well is mixed, take 60 μl of the 120 μl in this well and discard it. Leave the last well with 60 μl of DMSO/media diluent as a non-drug-containing control. […] 9 columns of titrated drug, enough for triplicate wells each for 1) VEGF (obtained from Pepro Tech Inc., catalogue no. 100-200, 2) endothelial cell growth factor (ECGF) (also known as acidic fibroblast growth factor, or aFGF) (obtained from Boehringer Mannheim Biochemica, catalogue no. […] ECGF comes as a preparation with sodium heparin.
(§5) Transfer 50 μl/well of the drug dilutions to the 96-well assay plates containing the 0.8-1.0×10^4 cells/100 μl/well of the HUV-EC-C cells from day 0 and incubate ˜2 h at 37° C., 5% CO2.
(§6) In triplicate, add 50 μl/well of 80 μg/ml VEGF, 20 ng/ml ECGF, or media control to each drug condition. As with the drugs, the growth factor concentrations are 4× the desired final concentration. Use the assay media from day 0 step 2 to make the concentrations of growth factors.
Freeze plates overnight at −20° C.

HUV-EC-C cells [2] = test: HUV-EC-C assay, a-FGF (ECGF)-induced [3H]thymidine incorporation; type: cell-based, human; settings: a-FGF-stimulated HUV-EC cells, read-out: Mitogenesis in Endothelial Cells, [3H] Thymidine Incorporation, HUV-EC Assay, a-FGF
Experimental: as §1, §2, §3, §4, §5, §6
Freeze plates overnight at −20° C.

[3] = ELISA, FLK-1/NIH3T3 cells, VEGF stimulated

T2 sequence (P00533 25-1210): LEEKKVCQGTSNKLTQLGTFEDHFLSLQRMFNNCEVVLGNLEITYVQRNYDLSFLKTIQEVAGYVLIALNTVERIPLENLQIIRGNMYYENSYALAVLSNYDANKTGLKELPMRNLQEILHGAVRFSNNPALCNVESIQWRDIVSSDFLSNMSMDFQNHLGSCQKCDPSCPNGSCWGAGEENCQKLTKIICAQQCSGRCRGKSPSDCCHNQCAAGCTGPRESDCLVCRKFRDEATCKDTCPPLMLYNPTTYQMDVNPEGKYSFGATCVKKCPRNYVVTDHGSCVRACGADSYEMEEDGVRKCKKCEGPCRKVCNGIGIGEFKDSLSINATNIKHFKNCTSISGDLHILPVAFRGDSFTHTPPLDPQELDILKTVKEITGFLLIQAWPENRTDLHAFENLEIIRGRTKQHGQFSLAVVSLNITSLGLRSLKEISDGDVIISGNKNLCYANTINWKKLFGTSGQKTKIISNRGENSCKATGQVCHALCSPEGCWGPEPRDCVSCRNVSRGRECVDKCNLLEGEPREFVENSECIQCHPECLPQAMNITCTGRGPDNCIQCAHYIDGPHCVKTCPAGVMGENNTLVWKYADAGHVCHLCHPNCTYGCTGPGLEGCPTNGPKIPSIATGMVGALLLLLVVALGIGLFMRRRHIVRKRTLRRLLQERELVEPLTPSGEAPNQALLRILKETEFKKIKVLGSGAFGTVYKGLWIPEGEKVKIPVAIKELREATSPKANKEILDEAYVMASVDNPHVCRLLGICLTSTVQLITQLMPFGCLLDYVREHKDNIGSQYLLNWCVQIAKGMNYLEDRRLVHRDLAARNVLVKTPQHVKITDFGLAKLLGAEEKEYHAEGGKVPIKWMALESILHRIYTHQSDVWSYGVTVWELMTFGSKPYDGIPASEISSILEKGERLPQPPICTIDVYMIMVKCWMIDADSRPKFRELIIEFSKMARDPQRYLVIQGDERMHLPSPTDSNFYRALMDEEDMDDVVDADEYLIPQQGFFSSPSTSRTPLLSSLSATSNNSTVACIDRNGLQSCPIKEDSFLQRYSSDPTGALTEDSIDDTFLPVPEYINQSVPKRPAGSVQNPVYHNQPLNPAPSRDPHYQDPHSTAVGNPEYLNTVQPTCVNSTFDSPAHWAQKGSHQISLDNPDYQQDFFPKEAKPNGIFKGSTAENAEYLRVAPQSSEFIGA
T1 sequence (P35918 20-1345): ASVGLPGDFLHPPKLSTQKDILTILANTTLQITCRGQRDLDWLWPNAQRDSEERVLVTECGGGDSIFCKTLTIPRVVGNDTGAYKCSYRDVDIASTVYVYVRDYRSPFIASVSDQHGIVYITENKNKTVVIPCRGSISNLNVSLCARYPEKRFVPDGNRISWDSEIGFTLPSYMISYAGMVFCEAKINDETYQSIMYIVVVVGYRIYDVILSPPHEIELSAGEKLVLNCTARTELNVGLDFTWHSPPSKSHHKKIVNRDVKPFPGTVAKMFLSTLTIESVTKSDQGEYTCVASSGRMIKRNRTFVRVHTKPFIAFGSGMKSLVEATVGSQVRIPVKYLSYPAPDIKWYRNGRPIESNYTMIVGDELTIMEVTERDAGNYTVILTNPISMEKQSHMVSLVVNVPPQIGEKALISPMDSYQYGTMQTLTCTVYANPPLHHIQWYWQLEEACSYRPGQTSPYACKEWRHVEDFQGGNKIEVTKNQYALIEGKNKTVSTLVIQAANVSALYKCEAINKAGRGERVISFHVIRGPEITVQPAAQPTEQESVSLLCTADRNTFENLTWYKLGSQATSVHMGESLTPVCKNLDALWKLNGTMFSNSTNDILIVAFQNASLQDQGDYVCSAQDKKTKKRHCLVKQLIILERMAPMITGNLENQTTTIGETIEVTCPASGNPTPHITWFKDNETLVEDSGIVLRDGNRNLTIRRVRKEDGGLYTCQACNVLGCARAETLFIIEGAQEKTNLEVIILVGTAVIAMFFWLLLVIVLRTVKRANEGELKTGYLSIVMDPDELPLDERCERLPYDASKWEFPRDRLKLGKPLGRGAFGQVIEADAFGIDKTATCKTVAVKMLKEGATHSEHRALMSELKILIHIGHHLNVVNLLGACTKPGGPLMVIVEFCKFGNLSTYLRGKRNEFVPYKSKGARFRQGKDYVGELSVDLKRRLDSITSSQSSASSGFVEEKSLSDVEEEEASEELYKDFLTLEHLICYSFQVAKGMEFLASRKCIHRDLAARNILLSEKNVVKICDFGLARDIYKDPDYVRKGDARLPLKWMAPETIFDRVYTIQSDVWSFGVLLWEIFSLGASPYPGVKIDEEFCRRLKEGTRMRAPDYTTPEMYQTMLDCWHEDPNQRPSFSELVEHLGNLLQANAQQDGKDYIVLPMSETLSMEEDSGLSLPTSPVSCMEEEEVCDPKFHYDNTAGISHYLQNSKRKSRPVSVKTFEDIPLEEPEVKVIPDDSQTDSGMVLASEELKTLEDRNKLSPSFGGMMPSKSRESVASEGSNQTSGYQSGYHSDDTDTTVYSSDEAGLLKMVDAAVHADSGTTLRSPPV

`O=C1Nc2ccccc2C1=Cc1ccc(F)cc1` [SU5205, 3-(4-Fluorobenzylidenyl)-2-indolinone] showed an IC50 (FLK-1 receptor; [3]) of 9.6 µM.

`O=C1Nc2ccccc2C1=Cc1ccc([N+](=O)[O-])o1` [SU5432, 3-[(2-Nitrofuran-5-yl)methylene]-2-indolinone] was tested, and the IC50 (FLK-1 receptor; [3]) was 22.8 µM.

`CSc1ccc(C=C2C(=O)Nc3ccccc32)s1` [SU5419, 3-[(2-Methylmercaptothien-5-yl)methylene]-2-indolinone] gave an IC50 (FLK-1 receptor; [3]) of 2.3 µM.

For `COc1ccc(OC)c(C=C2C(=O)Nc3ccccc32)c1` [SU4793, 3-(2,5-Dimethoxybenzylidenyl)-2-indolinone], the IC50 (FLK-1 receptor; [3]) was 4.2 µM.

For `O=C1Nc2ccccc2C1=Cc1ccc(O)cc1Cl` [SU4932, 3-(2-chloro-4-hydroxybenzylidenyl)-2-indolinone], the IC50 (FLK-1 receptor; [3]) was 2.2 µM.

“3-[(2-Sulphonylfuran-5-yl)methylene]-2-indolinone sodium salt [SU5428]” gave an IC50 (FLK-1 receptor) of 8.6 µM.

In the case of `COC(=O)CCc1c(C)c[nH]c1C=C1C(=O)Nc2ccccc21` [SU5407, 3-{[4-(2-methoxycarbonylethyl)-3-methylpyrrol-5-yl]methylene}-2-indolinone], the IC50 (FLK-1 receptor; [3]) is reported as 1.1 µM and the IC50 (EGFR) is reported as 100 µM.

`CCc1c(C=C2C(=O)Nc3ccccc32)[nH]c(C(=O)O)c1C` [SU5455, 3-[(5-Carboxy-3-ethyl-4-methylpyrrol-2-yl)methylene]-2-indolinone] showed an IC50 (FLK-1 receptor; [3]) of 36.2 µM.

`COc1ccc(Br)cc1C=C1C(=O)Nc2ccccc21` [SU4796, 3-(3-bromo-6-methoxybenzylidenyl)-2-indolinone] was tested, and the IC50 (HUV-EC-C cells [1]) was 30.7 µM and the IC50 (HUV-EC-C cells [2]) was 35.8 µM.

In the case of `CCc1c(C)[nH]c(C=C2C(=O)Nc3ccccc32)c1C` [SU5477, 3-[(4-Ethyl-3,5-dimethylpyrrol-2-yl)methylene]-2-indolinone], the IC50 (FLK-1 receptor; [3]) is reported as 0.15 µM.

Work on `COc1ccccc1C=C1C(=O)Nc2ccccc21` [SU4949, 3-(2-Methoxybenzylidenyl)-2-indolinone] yielded an IC50 (HUV-EC-C cells [1]) of 3.4 µM and an IC50 (HUV-EC-C cells [2]) of 3.7 µM.

For `CCOc1ccccc1C=C1C(=O)Nc2ccccc21` [SU5204, 3-(2-Ethoxybenzylidenyl]-2-indolinone], the IC50 (FLK-1 receptor; [3]) was 4 µM.

For `O=C1Nc2ccccc2C1=Cc1ccco1` [SU4798, 3-[(furan-2-yl)methylene]-2-indolinone], the IC50 (FLK-1 receptor; [3]) was 28.8 µM.

Work on `O=C1Nc2ccccc2C1=Cc1ccc(Br)s1` [SU5425, 3-[(2-Bromothiene-5-yl)methylene]-2-indolinone] yielded an IC50 (FLK-1 receptor; [3]) of 51.4 µM.

Molecule `O=C1Nc2ccccc2C1=Cc1cccs1` [SU5208, 3-[(Thien-2-yl)methylene]-2-indolinone] has an IC50 (FLK-1 receptor; [3]) of 4.7 µM.

Molecule `O=C1Nc2ccccc2C1=Cc1ccc(N2CCCC2)cc1` [SU5466, 3-[4-(Pyrrolidin-1-yl)benzylidenyl]-2-indolinone] has an IC50 (FLK-1 receptor; [3]) of 1.6 µM and an IC50 (EGFR) of 17 µM.

Molecule `CC(=O)Nc1ccc(C=C2C(=O)Nc3ccccc32)cc1` [SU4944, 3-(4-Acetylaminobenzylidenyl)-2-indolinone] has an IC50 (FLK-1 receptor; [3]) of 8.5 µM.

Molecule `Cc1csc(C=C2C(=O)Nc3ccccc32)c1` [SU5401, 3-[(4-Methylthien-2-yl)methylene]-2-indolinone] has an IC50 (FLK-1 receptor; [3]) of 2.9 µM.

For `Cc1cc(C=C2C(=O)Nc3ccccc32)[nH]n1` [SU5472, 3-[(3-Methylpyrazol-5-yl)methylene]-2-indolinone], the IC50 (FLK-1 receptor; [3]) was 8.7 µM.

Work on `Cc1cnc(C=C2C(=O)Nc3ccccc32)s1` [SU5469, 3-[(5-Methylthiazol-2-yl)methylene]-2-indolinone] yielded an IC50 (EGFR) of 28 µM.

Molecule `O=C1Nc2ccccc2C1=Cc1cnc[nH]1` [SU5473, 3-[(Imidazol-4-yl)methylene]-2-indolinone] has an IC50 (FLK-1 receptor; [3]) of 1.5 µM, an IC50 (HUV-EC-C cells [1]; Homo sapiens, HUVEC) of 1.2 µM and an IC50 (HUV-EC-C cells [2]; Homo sapiens, HUVEC) of 14.1 µM. For the same molecule, the IC50 (EGFR) was 54 µM.

Work on `CCOC(=O)CCc1c(C=C2C(=O)Nc3ccccc32)[nH]c(C(=O)OCC)c1CC(=O)OCC` [SU5465, 3-[(5-Ethoxycarbonyl-3-ethoxycarbonylethyl-4-ethoxylcarbonylmethylpyrrol-2-yl)methylene]-2-indolinone] yielded an IC50 (EGFR) of 50 µM.

`Cc1cc(C=C2C(=O)Nc3ccccc32)oc1C` [SU5421, 3-[(2,3-Dimethylfuran-5-yl)methylene]-2-indolinone] showed an IC50 (FLK-1 receptor; [3]) of 4.6 µM.

`Cc1cc[nH]c1C=C1C(=O)Nc2ccccc21` [SU5404, 3-[(3-Methylpyrrol-2-yl)methylene]-2-indolinone] showed an IC50 (FLK-1 receptor; [3]) of 0.24 µM.

For `CCc1c(C=C2C(=O)Nc3ccccc32)[nH]c(C)c1C` [SU5453, 3-[(4,5-Dimethyl-3-ethylpyrrol-2-yl)methylene]-2-indolinone], the IC50 (FLK-1 receptor; [3]) was 0.14 µM.

Molecule `Cc1c(CCC(=O)O)c[nH]c1C=C1C(=O)Nc2ccccc21` [SU5402, 3-[(3-(2-carboxyethyl)-4-methylpyrrol-5-yl)methylene]-2-indolinone] has an IC50 (FLK-1 receptor; [3]) of 0.4 µM.

With `COc1cccc(C=C2C(=O)Nc3ccccc32)c1OC` [SU4794, 3-(2,3-dimethoxybenzylidenyl)-2-indolinone] the IC50 (FLK-1 receptor; [3]) was 11.8 µM.

Work on `CC(=O)Nc1ccc(C=C2C(=O)Nc3ccccc32)cc1` [SU4799, 3-(4-acetamidobenzylidenyl)-2-indolinone] yielded an IC50 (FLK-1 receptor; [3]) of 9 µM.

In the case of `Cc1ccc(C=C2C(=O)Nc3ccccc32)s1` [SU5424, 3-[(2-Methylthien-5-yl)methylene]-2-indolinone], the IC50 (FLK-1 receptor; [3]) is reported as 2.4 µM.

Work on `CN(C)c1c(C=C2C(=O)Nc3ccccc32)cc(C=C2C(=O)Nc3ccccc32)c(N(C)C)c1C#N` [SU5218, 2,6-Di-(dimethylamino)-3,5-di-[(indolin-2-one-3-ylidenyl)methyl]-phenylcyanide] yielded an IC50 (FLK-1 receptor; [3]) of 6.4 µM, an IC50 (HUV-EC-C cells [1]; Homo sapiens, HUVEC) of 2.4 µM and an IC50 (HUV-EC-C cells [2]; Homo sapiens, HUVEC) of 2.7 µM.

Molecule `O=C1Nc2ccccc2C1=Cc1n[nH]cc1Cl` [SU5474, 3-[(4-Chloropyrazol-3-yl)methylene]-2-indolinone] has an IC50 (FLK-1 receptor; [3]) of 7.4 µM.

`O=C1Nc2ccccc2C1=Cc1ccc(I)o1` [SU5409] was tested, and the IC50 (HUV-EC-C cells [1]) was 26 µM.

In the case of `O=C1Nc2ccccc2C1=Cc1ccc(Cl)c(Cl)c1` [SU5201, 3-(3,4-Dichlorobenzylidenyl)-2-indolinone], the IC50 (HUV-EC-C cells [1]) is reported as 2.5 µM and the IC50 (HUV-EC-C cells [2]) is reported as 2.3 µM.

With `Cc1c(C=O)[nH]c(C=C2C(=O)Nc3ccccc32)c1C` [SU5405, 3-[(3,4-Dimethyl-2-formylpyrrole-5-yl)methylene)-2-indolinone] the IC50 (FLK-1 receptor; [3]) was 23.8 µM.

`Cc1c[nH]c(C=C2C(=O)Nc3ccccc32)c1C` [SU5406, 3-[(3,4-Dimethylpyrrol-2-yl)methylene]-2-indolinone] gave an IC50 (FLK-1 receptor; [3]) of 0.17 µM.

`O=C1Nc2ccccc2C1=Cc1c(Br)cnn1Cc1ccc(Cl)cc1` [SU5475, 3-[(4-Bromo-1-(4-chlorobenzyl)pyrazol-5-yl)methylene]-2-indolinone] was tested, and the IC50 (EGFR) was 48 µM.

Work on `CCCCN(CCCC)c1ccc(C=C2C(=O)Nc3ccccc32)cc1` [SU4979, 3-(4-Di-n-butylaminobenzylidenyl)-2-indolinone] yielded an IC50 (FLK-1 receptor; [3]) of 20.9 µM.

`CN(C)c1ccc(C=C2C(=O)N(C)c3ccccc32)cc1` [SU4952, 3-(4-Dimethylaminobenzylidenyl)-1-methyl-2-indolinone] showed an IC50 (FLK-1 receptor; [3]) of 22.6 µM.

With `CN(C)c1ccc(C=C2C(=O)Nc3ccc(Cl)cc32)cc1` [SU4967, 5-Chloro-3-(4-dimethylaminobenzylidenyl)-2-indolinone] the IC50 (FLK-1 receptor; [3]) was 11.2 µM and the IC50 (EGFR) was 60 µM.

Molecule `CCOC(=O)c1c[nH]c(C=C2C(=O)Nc3ccccc32)c1C` [SU5463] has an IC50 (FLK-1 receptor; [3]) of 0.18 µM and an IC50 (EGFR) of 23 µM.

With `O=C1Nc2ccc(Cl)cc2C1=Cc1ccc(N2CCOCC2)cc1` [SU4983, 5-Chloro-3-(4-(morpholine-4-yl)benzylidenyl)-2-indolinone] the IC50 (FLK-1 receptor; [3]) was 4.1 µM.

`Cc1ccsc1C=C1C(=O)Nc2ccccc21` [SU5427, 3-[(3-Methylthien-2-yl)methylene]-2-indolinone] gave an IC50 (FLK-1 receptor; [3]) of 4.5 µM.

Work on `O=C1Nc2ccccc2C1=Cc1ccc(-c2cc(C(F)(F)F)cc(C(F)(F)F)c2)o1` [SU5217] yielded an IC50 (HUV-EC-C cells [1]) of 9.6 µM and an IC50 (HUV-EC-C cells [2]) of 10.5 µM.

Molecule `CN(C)c1ccc(C=C2C(=O)Nc3ccccc32)cc1` [SU4312, 3-(4-Dimethylaminobenzylidenyl)-2-indolinone] has an IC50 (FLK-1 receptor; [3]) of 0.8 µM.

Work on `Cc1ccc(C=C2C(=O)Nc3ccccc32)o1` [SU5430, 3-[(2-Methylfuran-5-yl)methylene]-2-indolinone] yielded an IC50 (FLK-1 receptor; [3]) of 73.4 µM.

Work on `CCc1ccc(C=C2C(=O)Nc3ccccc32)o1` [SU5431] yielded an IC50 (FLK-1 receptor; [3]) of 41.2 µM.

For `O=C1Nc2ccccc2C1=Cc1ccc(N2CCOCC2)cc1` [SU4981, 3-[4-(Morpholin-4-yl)benzylidenyl]-2-indolinone], the IC50 (FLK-1 receptor; [3]) was 2.1 µM and the IC50 (EGFR) was 20 µM.

`Cc1[nH]c(C=C2C(=O)Nc3ccccc32)c(Br)c1Br` [SU5403, 3-[(3,4-Dibromo-5-methylpyrrol-2-yl)methylene]-2-indolinone] was tested, and the IC50 (FLK-1 receptor; [3]) was 1.8 µM.

In the case of `O=C1Nc2ccccc2C1=Cc1cccn1-c1ccc(Cl)cc1` [SU5462], the IC50 (HUV-EC-C cells [1]) is reported as 0.5 µM and the IC50 (HUV-EC-C cells [2]) is reported as 0.8 µM.

Molecule `Cc1cnc(C=C2C(=O)Nc3ccccc32)[nH]1` [SU5468, 3-[(5-Methylimidazol-2-yl)methylene]-2-indolinone] has an IC50 (FLK-1 receptor; [3]) of 2.7 µM.

Molecule `O=C1Nc2ccccc2C1=Cc1sccc1Br` [SU5418, 3-[(3-Bromothiene-2-yl)methylene]-2-indolinone] has an IC50 (FLK-1 receptor; [3]) of 15.4 µM.

`O=C1Nc2ccc(Cl)cc2C1=Cc1ccc(Br)cc1` [SU4972, 3-(4-Bromobenzylidenyl)-5-chloro-2-indolinone] gave an IC50 (HUV-EC-C cells [2]) of 1.4 µM.

`Cn1cccc1C=C1C(=O)Nc2ccccc21` [SU5464, 3-[(1-Methylpyrrol-2-yl)methylene]-2-indolinone] was tested, and the IC50 (FLK-1 receptor; [3]) was 20.3 µM and the IC50 (EGFR) was 95 µM.

`CCOC(=O)c1c(C)[nH]c(C=C2C(=O)Nc3ccccc32)c1C` [SU5408, 3-[(2,4-Dimethyl-3-ethoxycarbonylpyrrol-5-yl)methylene]-2-indolinone] was tested, and the IC50 (FLK-1 receptor; [3]) was 0.07 µM.
